Consider 23 compounds from patent US20240409556A1, “BENZOPIPERAZINE AND RELATED ANALOGS FOR INHIBITING YAP/TAZ-TEAD” (Springworks Therapeutics, Inc., priority 2023, published 2024).

Format in all cases: cell-based
Assay [1] has as its system NCI-H2052 mesothelioma cell line. Description: Mesothelioma cell line proliferation assay, NCI-H2052 (ATPlite). The note with it: NCI-H2052 cells, 6 days with compound, cell viability by ATPlite. The method, then: (§1) Example 57: Activity of Compounds of the Disclosure in Mesothelioma Cell Line Proliferation Assays
(§2) Mesothelioma cell lines, NCI-H226 and NCI-H2052 (both sourced from the ATCC cell culture collection) were plated in 96-well plates (Corning® 96 Well White Polystyrene Microplate clear flat bottom, white polystyrene (TC-Treated)), at 1500 cells/well in full medium (RPMI 1640 ATCC modification with L-glutamine, HEPES, Phenol Red, Sodium Pyruvate, High glucose, Low sodium bicarbonate and 10% fetal bovine serum). Cells were incubated overnight at 37° C. in an incubator with 5% CO2. Then compounds, dissolved in DMSO, were added in dose-response. Cells were incubated with compound dilutions for another 6 days at 37° C. in an incubator with 5% CO2. Cell viability was quantitated using the ATPlite kit (Perkin-Elmer) and the luminescence was read-out using an Envision instrument (Perkin-Elmer). The amount of relative light units produced using the ATPlite kit was used to calculate percent of inhibition.
(§3) The activities of some example compounds are depicted in Table 4. The activity ranges A, B and C refer to EC50 values in the mesothelioma cell line proliferation assay as described as follows: “A”: EC50<1 μM; “B”: 1 μM≤EC50≤10 μM and “C”: EC50>10 μM; NT: not tested.

Assay [2] deals with YAP/TAZ-TEAD transcription. The assay is described as follows: Reporter gene assay for measuring the inhibition of YAP/TAZ-TEAD transcription (TEAD-responsive element luciferase reporter in Hek293T cells). The note with it: 24 hours incubation. The essentials:
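HEK293T cells transiently transfected with a TEAD-responsive luciferase reporter were exposed to compounds for 24 h at 37° C/5% CO2, then luminescence was read. Percent inhibition normalised to vehicle (0%) and positive-control inhibitor (100%); IC50 derived.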

Assay [3] concerns NCI-H226 mesothelioma cell line. The assay is described as follows: Mesothelioma cell line proliferation assay, NCI-H226 (ATPlite). The note with it: NCI-H226 cells, 6 days with compound, cell viability by ATPlite. The protocol:
as §1, §2, §3
(In general: In ATP-based viability assays light output follows the ATP content of the culture.)

As a reminder, the EC50 is the concentration giving half of the maximal effect. As usually defined, the IC50 is the concentration that inhibits the measured activity by half. A low value points to inhibition by little substance. On to `Cc1ccc2c(n1)N1CCC(C(=O)O)CC1CN2c1ccc(C(F)(F)F)cc1` [101-D4, (6aS,8S)— or (6aR,8S)— or (6aR,8R)— or (6aS,8R)-2-methyl-5-(4-(trifluoromethyl)phenyl)-6,6a,7,8,9,10-hexahydro-5H-dipyrido[1,2-a:3′,2′-e]pyrazine-8-carboxylic acid], for which the EC50 in assay [1] and in assay [3] was less than 1000 nM each time. The compound further displayed a concentration for half-maximal inhibition (IC50) in assay [2] of less than 1000 nM.

For `CC(=O)NCC1CN(c2ccc(C(F)(F)F)cc2)c2ccccc2O1` (stereo not drawn) [compound 36, N-((4-(4-(trifluoromethyl)phenyl)-3,4-dihydro-2H-benzo[b][1,4]oxazin-2-yl)methyl)acetamide], the EC50 in assay [1] (Homo sapiens, 144 h) was less than 1000 nM; in assay [3] (Homo sapiens, 144 h), less than 1000 nM. For the same compound, the IC50 in assay [2] (Homo sapiens, HEK-293T, 24 h) was less than 1000 nM.

Turning to `CC(=O)NCC1CN(c2ccc(C(F)(F)F)cc2)c2ccccc2N1` (stereo not drawn) [compound 34, N-((4-(4-(trifluoromethyl)phenyl)-1,2,3,4-tetrahydroquinoxalin-2-yl)methyl)acetamide], the concentration giving a half-maximal response (EC50) was less than 1000 nM in assay [1] (Homo sapiens, 144 h) and less than 1000 nM in assay [3] (Homo sapiens, 144 h). This compound also showed an IC50 in assay [2] of less than 1000 nM.

`CC(=O)N1CCN2c3ccccc3N(c3ccc(C(F)(F)F)cc3)CC2C1` (stereo not drawn) [compound 15, 1-(6-(4-(trifluoromethyl)phenyl)-1,2,4,4a,5,6-hexahydro-3H-pyrazino[1,2-a]quinoxalin-3-yl)ethan-1-one]: the 50% effective concentration (EC50) in assay [1] (Homo sapiens, 144 h) was less than 1000 nM; in assay [3] (Homo sapiens, 144 h), less than 1000 nM. In assay [2] (Homo sapiens, HEK-293T, 24 h), this compound gave a 50% inhibitory concentration (IC50) of less than 1000 nM.

For the compound `C=CC(=O)N1CCN2c3ccccc3N(c3ccc(C(F)(F)F)cc3)CC2C1` (single isomer, unassigned) [14-En1, (R)- or (S)-1-(6-(4-(trifluoromethyl)phenyl)-1,2,4,4a,5,6-hexahydro-3H-pyrazino[1,2-a]quinoxalin-3-yl)prop-2-en-1-one], the EC50 is less than 1000 nM in assay [1] (Homo sapiens, 144 h) and less than 1000 nM in assay [3] (Homo sapiens, 144 h). In assay [2], this compound returned an IC50 of less than 1000 nM.

For the compound `CC(=O)NCC1CN(c2ccc(C(F)(F)F)cc2)c2ccc(C3CC3)nc2O1` (single isomer, unassigned) [81-En1, (R)- or (S)-N-((6-cyclopropyl-1-(4-(trifluoromethyl)phenyl)-2,3-dihydro-1H-pyrido[2,3-b][1,4]oxazin-3-yl)methyl)acetamide], the concentration giving a half-maximal response (EC50) in assay [1] (Homo sapiens, 144 h) was less than 1000 nM; in assay [3] (Homo sapiens, 144 h), less than 1000 nM. The same compound had a half-maximal inhibitory concentration (IC50) in assay [2] (Homo sapiens, HEK-293T, 24 h) of less than 1000 nM.

Turning to `C=CC(=O)NCC1CN(c2ccc(C(F)(F)F)cc2)c2cccnc2N1C` (single isomer, unassigned) [27-En1], the EC50 was less than 1000 nM in assay [1] (Homo sapiens, 144 h) and less than 1000 nM in assay [3] (Homo sapiens, 144 h). In assay [2] (Homo sapiens, HEK-293T, 24 h), this compound had an IC50 of less than 1000 nM.

As to `C=CC(=O)NC[C@H]1CN(c2ccc(C(F)(F)F)cc2)c2cccnc2N1` [38-En1, (S)—N-((1-(4-(trifluoromethyl)phenyl)-1,2,3,4-tetrahydropyrido[2,3-b]pyrazin-3-yl)methyl)acrylamide], the EC50 in assay [1] (Homo sapiens, 144 h) is less than 1000 nM; in assay [3] (Homo sapiens, 144 h), less than 1000 nM. For the same compound, the IC50 in assay [2] (Homo sapiens, HEK-293T, 24 h) was less than 1000 nM.

As for `CC(=O)N1CCN2c3ccccc3N(c3ccc(C(F)(F)F)cc3)CC2C1` (single isomer, unassigned) [15-En2, (R)- or (S)-1-(6-(4-(trifluoromethyl)phenyl)-1,2,4,4a,5,6-hexahydro-3H-pyrazino[1,2-a]quinoxalin-3-yl)ethan-1-one], the 50% effective concentration (EC50) in assay [1] and in assay [3] was less than 1000 nM each time. For the same compound, the 50% inhibitory concentration (IC50) in assay [2] was less than 1000 nM.

Regarding `C=CC(=O)NCC1CN(c2ccc(C(F)(F)F)cc2)c2ccccc2N1C` (stereo not drawn) [compound 17, N-((1-methyl-4-(4-(trifluoromethyl)phenyl)-1,2,3,4-tetrahydroquinoxalin-2-yl)methyl)acrylamide], the EC50 in assay [1] (Homo sapiens, 144 h) is less than 1000 nM; in assay [3] (Homo sapiens, 144 h) it was less than 1000 nM. In addition, in assay [2] (Homo sapiens, HEK-293T, 24 h), the half-maximal inhibitory concentration (IC50) is less than 1000 nM.

In the case of `CS(=O)(=O)N[C@@H]1C[C@@H]2CN(c3ccc(C(F)(F)F)cc3)c3cccnc3N2C1` [compound 85, N-((6aR,8R)-5-(4-(trifluoromethyl)phenyl)-5,6,6a,7,8,9-hexahydropyrido[3,2-e]pyrrolo[1,2-a]pyrazin-8-yl)methanesulfonamide], the EC50 is more than 10000 nM in assay [1] (Homo sapiens, 144 h) and 1000 to 10000 nM in assay [3] (Homo sapiens, 144 h). This compound also displayed an IC50 in assay [2] (Homo sapiens, HEK-293T, 24 h) of less than 1000 nM.

For the compound `C=CC(=O)NCC1CN(c2ccc(C(F)(F)F)cc2)c2ccccc2N1CC#N` (stereo not drawn) [compound 3, N-((1-(cyanomethyl)-4-(4-(trifluoromethyl)phenyl)-1,2,3,4-tetrahydroquinoxalin-2-yl)methyl)acrylamide], the EC50 is less than 1000 nM in assay [1] (Homo sapiens, 144 h) and less than 1000 nM in assay [3] (Homo sapiens, 144 h). The compound further gave an IC50 in assay [2] (Homo sapiens, HEK-293T, 24 h) of less than 1000 nM.

Take `O=C(O)[C@@H]1C[C@@H]2CN(c3ccc(C(F)(F)F)cc3)c3cccnc3N2C1` [compound 102, (6aR,8R)-5-(4-(trifluoromethyl)phenyl)-5,6,6a,7,8,9-hexahydropyrido[3,2-e]pyrrolo[1,2-a]pyrazine-8-carboxylic acid]: the EC50 was less than 1000 nM in assay [1] (Homo sapiens, 144 h) and less than 1000 nM in assay [3] (Homo sapiens, 144 h). Further, the 50% inhibitory concentration (IC50) in assay [2] (Homo sapiens, HEK-293T, 24 h) is less than 1000 nM.

As to `C=CC(=O)NCC1CN(c2ccc(C(F)(F)F)cc2)c2ccccc2N1` (stereo not drawn) [compound 22, N-((4-(4-(trifluoromethyl)phenyl)-1,2,3,4-tetrahydroquinoxalin-2-yl)methyl)acrylamide], the EC50 is less than 1000 nM in assay [1] (Homo sapiens, 144 h) and less than 1000 nM in assay [3] (Homo sapiens, 144 h). This compound also gave a half-inhibitory concentration (IC50) in assay [2] (Homo sapiens, HEK-293T, 24 h) of less than 1000 nM.

For the compound `CNC(=O)N1CCN2c3ncccc3N(c3ccc(C(F)(F)F)cc3)CC2C1` (single isomer, unassigned) [52-En2, (R)- or (S)-N-methyl-5-(4-(trifluoromethyl)phenyl)-5,6,6a,7,9,10-hexahydro-8H-pyrazino[1,2-a]pyrido[3,2-e]pyrazine-8-carboxamide], the EC50 in assay [1] (Homo sapiens, 144 h) was less than 1000 nM; in assay [3] (Homo sapiens, 144 h), less than 1000 nM. This compound also displayed a 50% inhibitory concentration (IC50) in assay [2] of less than 1000 nM.

Consider `CC(=O)NCC1CN(c2ccc(C(F)(F)F)cc2)c2ccc(C)nc2O1` (single isomer, unassigned) [77-En1, (R)- or (S)-N-((6-methyl-1-(4-(trifluoromethyl)phenyl)-2,3-dihydro-1H-pyrido[2,3-b][1,4]oxazin-3-yl)methyl)acetamide], for which the EC50 in assay [1] (Homo sapiens, 144 h) was less than 1000 nM; in assay [3] (Homo sapiens, 144 h) it was less than 1000 nM. In assay [2], this compound showed an IC50 of less than 1000 nM.

As to `CC(=O)NCC1CN(c2ccc(C(F)(F)F)cc2)c2cccnc2O1` (single isomer, unassigned) [49-En1, (R)- or (S)-N-((1-(4-(trifluoromethyl)phenyl)-2,3-dihydro-1H-pyrido[2,3-b][1,4]oxazin-3-yl)methyl)acetamide], the EC50 in assay [1] (Homo sapiens, 144 h) was less than 1000 nM; in assay [3] (Homo sapiens, 144 h), less than 1000 nM. Also, in assay [2], the concentration for half-maximal inhibition (IC50) is less than 1000 nM.

In the case of `CC(=O)N[C@@H]1C[C@@H]2CN(c3ccc(C(F)(F)F)cc3)c3ccc(C)nc3N2C1` [compound 107, N-((6aR,8R)-2-methyl-5-(4-(trifluoromethyl)phenyl)-5,6,6a,7,8,9-hexahydropyrido[3,2-e]pyrrolo[1,2-a]pyrazin-8-yl) acetamide], the half-maximal effective concentration (EC50) in assay [1] (Homo sapiens, 144 h) is less than 1000 nM; in assay [3] (Homo sapiens, 144 h), less than 1000 nM. The half-maximal inhibitory concentration (IC50) in assay [2] (Homo sapiens, HEK-293T, 24 h) was less than 1000 nM.

For the compound `C=CC(=O)NCC1CN(c2ccc(C(F)(F)F)cc2)c2ccccc2N1CCC(N)=O` (stereo not drawn) [compound 13, N-((1-(3-amino-3-oxopropyl)-4-(4-(trifluoromethyl)phenyl)-1,2,3,4-tetrahydroquinoxalin-2-yl)methyl)acrylamide], the EC50 was less than 1000 nM in assay [1] (Homo sapiens, 144 h) and less than 1000 nM in assay [3] (Homo sapiens, 144 h). The compound also had an IC50 in assay [2] (Homo sapiens, HEK-293T, 24 h) of less than 1000 nM.

On to `NC(=O)C1CCN2c3ccccc3N(c3ccc(C(F)(F)F)cc3)CC2C1` (stereo not drawn) [117B-En2, (cis)- or (trans)-5-(4-(trifluoromethyl)phenyl)-6,6a,7,8,9,10-hexahydro-5H-pyrido[1,2-a]quinoxaline-8-carboxamide], for which the EC50 in assay [1] (Homo sapiens, 144 h) was less than 1000 nM; in assay [3] (Homo sapiens, 144 h), less than 1000 nM. In assay [2], this compound came in with a half-maximal inhibitory concentration (IC50) of less than 1000 nM.

Take `C=CC(=O)NCC1CN(c2ccc(C(F)(F)F)cc2)c2cccnc2N1C` (single isomer, unassigned) [27-En2]: the 50% effective concentration (EC50) in assay [1] and in assay [3] was less than 1000 nM in each case. The IC50 in assay [2] was less than 1000 nM.

As to `CNS(=O)(=O)N1CCN2c3ccccc3N(c3ccc(C(F)(F)F)cc3)CC2C1` (stereo not drawn) [compound 32, N-methyl-6-(4-(trifluoromethyl)phenyl)-1,2,4,4a,5,6-hexahydro-3H-pyrazino[1,2-a]quinoxaline-3-sulfonamide], the concentration giving a half-maximal response (EC50) in assay [1] (Homo sapiens, 144 h) was less than 1000 nM; in assay [3] (Homo sapiens, 144 h), less than 1000 nM. This compound also yielded an IC50 in assay [2] (Homo sapiens, HEK-293T, 24 h) of less than 1000 nM.

Take `CC(=O)N1CCN2c3ncccc3N(c3ccc(C(F)(F)F)cn3)CC2C1` (stereo not drawn) [53-En1, 1-(5-(5-(trifluoromethyl)pyridin-2-yl)-5,6,6a,7,9,10-hexahydro-8H-pyrazino[1,2-a]pyrido[3,2-e]pyrazin-8-yl)ethan-1-one]: the EC50 was less than 1000 nM in assay [1] (Homo sapiens, 144 h) and less than 1000 nM in assay [3] (Homo sapiens, 144 h). In assay [2], this compound yielded an IC50 of less than 1000 nM.
